From PubChem BioAssay AID248 (DTP/NCI, 2004)
“And” between values parts separate entries of the source, which are not always exact repeats. Equal values may be shown once. Inconclusive results and toxic doses are left out. Cut-off read from the data, not from the text of the source: active = T/C of 150% or more; inactive = T/C below 125%.

System: L1210 leukemia ip in BDF1 mice, survival T/C
Experiment: NCI In Vivo Anticancer Drug Screen. Data for tumor model L1210 Leukemia (intraperitoneal) in B6D2F1 (BDF1) mice
Conditions: endpoint: mean survival time, higher = longer survival
Procedure, shortened: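 Antitumor effect is assessed in tumor-bearing animals. Survival in the compound arm is compared with a vehicle-dosed control arm and expressed as their quotient.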

[1] = dose: 100.0 mg/kg/injection, schedule: Q01DX001 (ip), vehicle: saline
[2] = dose: 100.0 mg/kg/injection, schedule: Q04DX003 (ip), vehicle: Klucel (hydroxypropylcellulose) (HPC)
[3] = dose: 200.0 mg/kg/injection, schedule: Q01DX001 (ip), vehicle: saline
[4] = dose: 200.0 mg/kg/injection, schedule: Q04DX003 (ip), vehicle: Klucel (hydroxypropylcellulose) (HPC)
[5] = dose: 400.0 mg/kg/injection, schedule: Q01DX001 (ip), vehicle: saline
[6] = dose: 400.0 mg/kg/injection, schedule: Q04DX003 (ip), vehicle: Klucel (hydroxypropylcellulose) (HPC)
[7] = dose: 150.0 mg/kg/injection, schedule: Q01DX001 (ip), vehicle: carboxymethylcellulose (CMC)
[8] = dose: 100.0 mg/kg/injection, schedule: Q01DX001 (ip), vehicle: Klucel (hydroxypropylcellulose) (HPC)
[9] = dose: 200.0 mg/kg/injection, schedule: Q04DX003 (ip), vehicle: saline with Tween-80
[10] = dose: 400.0 mg/kg/injection, schedule: Q04DX003 (ip), vehicle: saline with Tween-80
[11] = dose: 100.0 mg/kg/injection, schedule: Q04DX003 (ip), vehicle: saline with Tween-80
[12] = dose: 100.0 mg/kg/injection, schedule: Q01DX009 (ip), vehicle: saline with Tween-80
[13] = dose: 100.0 mg/kg/injection, schedule: Q01DX001 (ip), vehicle: carboxymethylcellulose (CMC)
[14] = dose: 200.0 mg/kg/injection, schedule: Q01DX001 (ip), vehicle: carboxymethylcellulose (CMC)
[15] = dose: 400.0 mg/kg/injection, schedule: Q01DX001 (ip), vehicle: carboxymethylcellulose (CMC)

Measured: T/C

OCC1OC(n2ccc3c2ncn2nnnc32)C(O)C1O (configuration not stated)
inactive: dose: 12.5 mg/kg/injection, schedule: Q01DX009 (ip), vehicle: saline 91 % of control | dose: 12.5 mg/kg/injection, schedule: Q04DX003 (ip), vehicle: saline 102 % of control | dose: 25.0 mg/kg/injection, schedule: Q01DX009 (ip), vehicle: saline 102 % of control | dose: 25.0 mg/kg/injection, schedule: Q04DX003 (ip), vehicle: saline 107 % of control | dose: 50.0 mg/kg/injection, schedule: Q04DX003 (ip), vehicle: saline 105 % of control

S=C(SNC1CCCCC1)SNC1CCCCC1
inactive: [1] 103 % of control | [2] 114 % of control | [3] 94 % of control | [4] 105 % of control | [5] 105 % of control | [6] 107 % of control

O=C1CCCCCCCS(=O)(=O)C1
inactive: dose: 75.0 mg/kg/injection, schedule: Q01DX001 (ip), vehicle: carboxymethylcellulose (CMC) 112 % of control | [7] 104 % of control

Clc1cc(Cc2ccc(N=C/C=C/c3ccccc3)c(Cl)c2)ccc1N=C/C=C\c1ccccc1
inactive: dose: 100.0 mg/kg/injection, schedule: Q04DX002 (ip), vehicle: Klucel (hydroxypropylcellulose) (HPC) 100 % of control | dose: 200.0 mg/kg/injection, schedule: Q04DX002 (ip), vehicle: Klucel (hydroxypropylcellulose) (HPC) 93 % of control | dose: 400.0 mg/kg/injection, schedule: Q04DX002 (ip), vehicle: Klucel (hydroxypropylcellulose) (HPC) 86 % of control

CCOC(=O)Cc1cc(Cl)c2cc(C)ccc2n1
inactive: [1] 92 % of control | [3] 100 % of control | [5] 103 % of control and 89 % of control

Cc1cc(C)c(N(CC(=O)O)S(=O)(=O)c2ccccc2)c(Sc2ccccc2)c1
inactive: [8] 113 % of control | dose: 200.0 mg/kg/injection, schedule: Q01DX001 (ip), vehicle: Klucel (hydroxypropylcellulose) (HPC) 98 % of control | dose: 400.0 mg/kg/injection, schedule: Q01DX001 (ip), vehicle: Klucel (hydroxypropylcellulose) (HPC) 100 % of control

Clc1ccc(NC2=NCCO2)cc1Cl
inactive: dose: 44.0 mg/kg/injection, schedule: Q04DX003 (ip), vehicle: saline with Tween-80 101 % of control | dose: 66.0 mg/kg/injection, schedule: Q04DX003 (ip), vehicle: saline with Tween-80 103 % of control | dose: 150.0 mg/kg/injection, schedule: Q04DX003 (ip), vehicle: saline with Tween-80 93 % of control | [9] 92 % of control | [10] 94 % of control

O=C(O)C1C2C=CC(C2)C1C(=O)Nc1ccccc1 (configuration not stated)
inactive: [11] 106 % of control | [9] 96 % of control | [10] 101 % of control

Nc1[nH]c(=O)ncc1-c1ccccc1Cl
inactive: dose: 25.0 mg/kg/injection, schedule: Q01DX009 (ip), vehicle: saline with Tween-80 88 % of control | dose: 25.0 mg/kg/injection, schedule: Q04DX002 (ip), vehicle: saline with Tween-80 92 % of control and 100 % of control | dose: 25.0 mg/kg/injection, schedule: Q04DX003 (ip), vehicle: saline with Tween-80 93 % of control | dose: 50.0 mg/kg/injection, schedule: Q01DX001 (ip), vehicle: saline with Tween-80 101 % of control | dose: 50.0 mg/kg/injection, schedule: Q01DX009 (ip), vehicle: saline with Tween-80 91 % of control | dose: 50.0 mg/kg/injection, schedule: Q04DX002 (ip), vehicle: saline with Tween-80 101 % of control and 103 % of control | dose: 50.0 mg/kg/injection, schedule: Q04DX003 (ip), vehicle: saline with Tween-80 92 % of control | dose: 100.0 mg/kg/injection, schedule: Q01DX001 (ip), vehicle: saline with Tween-80 101 % of control | [12] 94 % of control and 91 % of control | [11] 103 % of control | [9] 101 % of control

CCCCCC(C)O[Si](C)c1cccc(C)c1 (configuration not stated)
inactive: [11] 107 % of control | [9] 98 % of control | [10] 102 % of control

O=NN(CCCl)C(=O)Nc1cc(Cl)ccc1O
inactive: dose: 1.0 mg/kg/injection, schedule: Q01DX001 (ip), vehicle: carboxymethylcellulose (CMC) 116 % of control | dose: 2.0 mg/kg/injection, schedule: Q01DX001 (ip), vehicle: carboxymethylcellulose (CMC) 110 % of control | dose: 4.0 mg/kg/injection, schedule: Q01DX001 (ip), vehicle: carboxymethylcellulose (CMC) 116 % of control | dose: 44.0 mg/kg/injection, schedule: Q01DX009 (ip), vehicle: carboxymethylcellulose (CMC) 100 % of control | dose: 66.0 mg/kg/injection, schedule: Q01DX001 (ip), vehicle: carboxymethylcellulose (CMC) 111 % of control | dose: 66.0 mg/kg/injection, schedule: Q01DX009 (ip), vehicle: carboxymethylcellulose (CMC) 90 % of control | [13] 114 % of control | dose: 100.0 mg/kg/injection, schedule: Q01DX009 (ip), vehicle: carboxymethylcellulose (CMC) 95 % of control | [7] 111 % of control | [14] 115 % of control | dose: 225.0 mg/kg/injection, schedule: Q01DX001 (ip), vehicle: carboxymethylcellulose (CMC) 123 % of control | [15] 116 % of control | dose: 800.0 mg/kg/injection, schedule: Q01DX001 (ip), vehicle: carboxymethylcellulose (CMC) 118 % of control

C=C(Br)COCC
inactive: dose: 25.0 mg/kg/injection, schedule: Q01DX009 (ip), vehicle: acetone 97 % of control

COC(=O)c1nnc(C(=O)OC)nn1
inactive: dose: 100.0 mg/kg/injection, schedule: Q04DX002 (ip), vehicle: saline 96 % of control | dose: 200.0 mg/kg/injection, schedule: Q04DX002 (ip), vehicle: saline 115 % of control | dose: 400.0 mg/kg/injection, schedule: Q04DX002 (ip), vehicle: saline 96 % of control

CC(=O)O[C@H]1CC[C@H]2[C@@H]3CC[C@H]4CC=C(C#N)C[C@]4(C)[C@H]3CC[C@]12C
inactive: dose: 50.0 mg/kg/injection, schedule: Q01DX001 (sc), vehicle: steriod suspending solution 107 % of control | dose: 100.0 mg/kg/injection, schedule: Q01DX001 (sc), vehicle: steriod suspending solution 104 % of control | dose: 200.0 mg/kg/injection, schedule: Q01DX001 (sc), vehicle: steriod suspending solution 102 % of control | dose: 400.0 mg/kg/injection, schedule: Q01DX001 (sc), vehicle: steriod suspending solution 101 % of control

O=C(N=C(c1ccccc1)c1ccccc1)c1ccccc1
inactive: [11] 90 % of control | [9] 90 % of control | [10] 88 % of control

O=C(Nc1ccc(NC(=O)C(Cl)Cl)cc1)C(Cl)Cl
inactive: [2] 97 % of control | [4] 101 % of control | [6] 90 % of control

COC(CCC#N)c1ccccc1 (configuration not stated)
inactive: [12] 97 % of control | [11] 105 % of control | dose: 200.0 mg/kg/injection, schedule: Q01DX009 (ip), vehicle: saline with Tween-80 100 % of control | [9] 97 % of control | dose: 400.0 mg/kg/injection, schedule: Q01DX009 (ip), vehicle: saline with Tween-80 101 % of control | [10] 102 % of control

COCCC(=O)COC
inactive: dose: 50.0 mg/kg/injection, schedule: Q01DX001 (ip), vehicle: saline 97 % of control | [1] 95 % of control | [3] 91 % of control | [5] 95 % of control

Cc1ccc(S(=O)(=O)C(CC(=O)O)c2ccccc2)cc1 (configuration not stated)
inactive: [13] 88 % of control | [14] 93 % of control | [15] 98 % of control

Cc1ccc([N+](=O)[O-])cc1NC(=O)NCc1ccccc1
inactive: dose: 100.0 mg/kg/injection, schedule: Q01DX009 (ip), vehicle: Klucel (hydroxypropylcellulose) (HPC) 89 % of control | dose: 200.0 mg/kg/injection, schedule: Q01DX009 (ip), vehicle: Klucel (hydroxypropylcellulose) (HPC) 89 % of control | dose: 400.0 mg/kg/injection, schedule: Q01DX009 (ip), vehicle: Klucel (hydroxypropylcellulose) (HPC) 97 % of control

c1ccc(N=Nc2ccc[nH]2)cc1
inactive: dose: 50.0 mg/kg/injection, schedule: Q01DX009 (ip), vehicle: acetone 98 % of control | dose: 100.0 mg/kg/injection, schedule: Q01DX009 (ip), vehicle: acetone 102 % of control

N=C(N)c1ccc(OCCCCOc2ccc(NC(=O)Nc3cccc(S(=O)(=O)F)c3)cc2)cc1
inactive: dose: 25.0 mg/kg/injection, schedule: Q01DX001 (ip), vehicle: Klucel (hydroxypropylcellulose) (HPC) 97 % of control | dose: 50.0 mg/kg/injection, schedule: Q01DX001 (ip), vehicle: Klucel (hydroxypropylcellulose) (HPC) 95 % of control | [8] 89 % of control
